# Laboratory results taken from patent publication US9434763B2, “Derivatives of pyridinone as inhibitors for tissue transglutaminase” (ZEDIRA GMBH, priority 2012, dated 2016).
# Assays:
# [1] = tested on: CaCo2 (human colon carcinoma-cell line); assay: Cytotoxicity: metabolic activity, EZ4U-Assay, CaCo2; assay type: cell-based; settings: CaCo2 cells; 48 hours after addition; inhibitors up to 1 mM (so in the source); cycloheximide 2.5 μg/ml, camptothecin 0.2 μg/ml
# Method: (§1) Huh 7 (human hepatome-cell line) and CaCo2 (human colon carcinoma-cell line) were seeded to 96 well plates in Dulbecco's Modified Eagle's Medium (DMEM)/10% fetal calf serum (FCS) and cultivated. The method is known to the skilled person.
# (§2) After one hour the inhibitors A63 (ZED1227), A29 (ZED1098) and A61 (ZED1219) were added in the concentrations 0.1 μM to 1 μM. The determination of the proliferation was carried out using the Cell Proliferation ELISA, BrdU (Roche 11 647 229 001): 24 hours after incubation of the cells with the inhibitor BrdU was added. The colorimetric development of the test was made after further 48 hours according to manufacturer's information. The extinction was measured at 450 nm. For determination of the metabolic activity using the EZ4U-Assay (Biomedica B1-5000) the tetrazolium substrate was added to the cells 48 hours after addition of the inhibitor. The capacity for reaction of the cells was measured every hour over a period of 4 hours at 450 nm against a reference filter of 630 nm. DMEM without inhibitor was added as reference in both experiments, as positive control cycloheximide (2.5 μg/ml) and camptothecin (0.2 μg/ml).
# [2] = tested on: CaCo2 (human colon carcinoma-cell line); assay: Cytotoxicity: proliferation, Cell Proliferation ELISA, BrdU, CaCo2; assay type: cell-based; settings: CaCo2 cells; inhibitors up to highest measured concentration of 1 mM (so in the source); cycloheximide 2.5 μg/ml, camptothecin 0.2 μg/ml
# Method: as §1
# as §2, with “After one hour the inhibitors A63 (ZED1227), A29 (ZED1098) and A61 (ZED1219) were added in the concentrations 0.1 μM to 1 μM.” left out
# [3] = tested on: Huh 7 (human hepatome-cell line); assay: Cytotoxicity: proliferation, Cell Proliferation ELISA, BrdU, Huh 7; assay type: cell-based; settings: Huh7 cells; inhibitors up to highest measured concentration of 1 mM (so in the source); cycloheximide 2.5 μg/ml, camptothecin 0.2 μg/ml
# Method: as §1
# as §2, with “After one hour the inhibitors A63 (ZED1227), A29 (ZED1098) and A61 (ZED1219) were added in the concentrations 0.1 μM to 1 μM.” left out
# [4] = tested on: Huh 7 (human hepatome-cell line); assay: Cytotoxicity: metabolic activity, EZ4U-Assay, Huh 7; assay type: cell-based; settings: Huh7 cells; 48 hours after addition; inhibitors up to 1 mM (so in the source); cycloheximide 2.5 μg/ml, camptothecin 0.2 μg/ml
# Method: as §1
# as §2, with “After one hour the inhibitors A63 (ZED1227), A29 (ZED1098) and A61 (ZED1219) were added in the concentrations 0.1 μM to 1 μM.” left out
# [5] = biological target: T1, His tagged recombinant human tissue transglutaminase (His6-rh-TG2) (Homo sapiens, UniProt P21980); assay: Inactivation of human tissue transglutaminase, fluorescence assay with Abz-APE(CAD-DNP)QEA-OH; assay type: biochemical; settings: substrate Abz-APE(CAD-DNP)QEA-OH, 37° C., pH=7.5
# T1 construct: purchased Zedira T002
# T1 sequence (P21980 1-687): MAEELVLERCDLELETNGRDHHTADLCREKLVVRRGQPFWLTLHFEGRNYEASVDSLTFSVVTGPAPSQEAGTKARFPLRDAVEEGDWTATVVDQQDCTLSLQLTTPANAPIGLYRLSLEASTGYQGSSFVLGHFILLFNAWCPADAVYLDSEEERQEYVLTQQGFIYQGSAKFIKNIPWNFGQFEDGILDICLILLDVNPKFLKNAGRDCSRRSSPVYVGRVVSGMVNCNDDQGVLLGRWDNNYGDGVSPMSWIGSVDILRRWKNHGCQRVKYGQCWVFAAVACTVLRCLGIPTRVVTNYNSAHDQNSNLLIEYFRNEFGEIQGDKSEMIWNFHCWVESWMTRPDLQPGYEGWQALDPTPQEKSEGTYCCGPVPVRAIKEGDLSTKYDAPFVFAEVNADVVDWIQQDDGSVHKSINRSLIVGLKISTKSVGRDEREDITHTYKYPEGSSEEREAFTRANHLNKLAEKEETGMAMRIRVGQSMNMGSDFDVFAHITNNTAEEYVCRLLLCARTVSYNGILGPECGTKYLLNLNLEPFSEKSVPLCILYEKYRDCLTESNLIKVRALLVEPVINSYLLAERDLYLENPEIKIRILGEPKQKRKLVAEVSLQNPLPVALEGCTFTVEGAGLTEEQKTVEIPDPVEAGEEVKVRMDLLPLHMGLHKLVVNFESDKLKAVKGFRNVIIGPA
# Method: General Method for Inactivation of Human Tissue Transglutaminase
# 250 μg lyophilized His tagged recombinant human tissue transglutaminase (His6-rh-TG2, Zedira product T002) are reconstituted by adding 150 μl water (resulting buffer 50 mM NaH2PO4, 150 mM NaCl, pH=8.0).
# A 10 mM inhibitor stock solution in DMSO is prepared and is diluted with buffer (50 mM Tris-HCl, 10 mM CaCl2, 5 mM DTT, pH=7.5) each to the twentyfold of the concentration desired in the preparation (but at least 1/50 dilution resulting in a 2% DMSO concentration).
# 900 μl of an assay-solution consisting of 55.56 mM Tris, 11.11 mM CaCl2, 0.11% PEG8000, 5.56 mM DTT, 5.56 mM glycine methyl ester and 50 μM Abz-APE(CAD-DNP)QEA-OH, (Zedira product A102; patent No.: EP 1781807B1), pH=7.5 are added to a cuvette and heated in a measuring cell of a spectrophotometer to 37° C. 50 μl of the particular inhibitor solution are added to this solution (resulting in a concentration of less than 0.2% DMSO in the mixture).
# 7 μl of the transglutaminase solution reconstituted above are diluted with 51 μl buffer (50 mM Tris, 100 mM NaCl, 5 mM DTT, pH=7.5). 50 μl of this enzyme solution (10 μg His6-rhTG2) are added to the assay-solution containing the particular inhibitor concentration. It is incubated 5 min at 37° C. before measuring starts (λexc=313 nm and λem=418 nm, t=15 to 30 min).
# The evaluation of the resulting enzyme activity is done using the slope of the straight line obtained by the increase in fluorescence.
# To determine the non-inhibited enzyme activity, DMSO instead of inhibitor stock solution is used. IC50 values are determined by plotting the resulting enzyme activity against the logarithm of the inhibitor concentration. IC50 is defined as the concentration of inhibitor resulting in 50% of enzyme activity.
IC50 [5] [µM],SMILES,also measured
0.175,"CCOC(=O)/C=C/CC[C@H](NC(=O)CCC(=O)O)C(=O)Nc1cccn(CC(=O)NCCC(C)(C)C)c1=O [A38, (S,E)-4-(1-(1-(2-(3,3-Dimethylbutylamino)-2-oxoethyl)-2-oxo-1,2-dihydropyridin-3-ylamino)-7-ethoxy-1,7-dioxohept-5-en-2-ylamino)-4-oxobutanoic acid]",
0.081,"CCC(CC)CNC(=O)Cn1cccc(NC(=O)[C@H](CC/C=C/C(=O)OC)NC(=O)c2ccccc2N)c1=O [A70, (S,E)-Methyl 6-(2-aminobenzamido)-7-(1-(2-(2-ethylbutylamino)-2-oxoethyl)-2-oxo-1,2-dihydropyridin-3-ylamino)-7-oxohept-2-enoate 2,2,2-trifluoroacetate]",
0.097,"CCC(CC)CNC(=O)Cn1cccc(NC(=O)[C@H](CC/C=C/C(=O)OC)NC(=O)c2ccc3c(c2)C(=O)OC32c3ccc(N(C)C)cc3Oc3cc(N(C)C)ccc32)c1=O [A71, (S,E)-Methyl 6-(3′,6′-bis(dimethylamino)-3-oxo-3H-spiro[isobenzofuran-1,9′-xanthene]-5-ylcarboxamido)-7-(1-(2-(2-ethylbutylamino)-2-oxoethyl)-2-oxo-1,2-dihydropyridin-3-ylamino)-7-oxohept-2-enoate]",
1.23,"CCOC(=O)/C=C/CC[C@H](NC(=O)CCC(=O)O)C(=O)Nc1cccn(CC(=O)N2CCC(C(F)(F)F)CC2)c1=O [A45, (S,E)-4-(7-Ethoxy-1,7-dioxo-1-(2-oxo-1-(2-oxo-2-(4-(trifluoromethyl)piperidin-1-yl)ethyl)-1,2-dihydropyridin-3-ylamino)hept-5-en-2-ylamino)-4-oxobutanoic acid]",
0.084,"CCOC(=O)/C=C/CC[C@H](NC(C)=O)C(=O)Nc1cccn(CC(=O)N[C@H](C(=O)OC)C(C)C)c1=O [A57, (S,E)-Ethyl 6-acetamido-7-(1-(2-((S)-1-methoxy-3-methyl-1-oxobutan-2-ylamino)-2-oxoethyl)-2-oxo-1,2-dihydropyridin-3-ylamino)-7-oxohept-2-enoate]",
0.071,"CCC(CC)CNC(=O)Cn1cccc(NC(=O)[C@H](CC/C=C/C(=O)OC)NC(=O)CN)c1=O [A69, (S,E)-Methyl 6-(2-aminoacetamido)-7-(1-(2-(2-ethybutylamino)-2-oxoethyl)-2-oxo-1,2-dihydropyridin-3-ylamino)-7-oxohept-2-enoate 2,2,2-trifluoroacetate]",

# Further lines, the compound ahead of its results:
SMILES,IC50 [5] [µM],also measured
"C[C@@H]1C[C@@H]([C@H](O)CC2CC(=O)NC(=O)C2)C(=O)[C@@H](C)C1 [cycloheximide, reference compound]",,effect on metabolic activity (EZ4U) [1]: significant reduction; effect on proliferation (BrdU) [2]: significant reduction; effect on proliferation (BrdU) [3]: significant reduction; effect on metabolic activity (EZ4U) [4]: significant reduction
"CCOC(=O)/C=C/CC[C@H](NS(=O)(=O)c1ccc(O)c(C(=O)O)c1)C(=O)Nc1cccn(CC(=O)NCCC(C)C)c1=O [A23, (S,E)-5-(N-(7-Ethoxy-1-(1-(2-(isopentylamino)-2-oxoethyl)-2-oxo-1,2-dihydropyridin-3-ylamino)-1,7-dioxohept-5-en-2-yl)sulfamoyl)-2-hydroxybenzoic acid]",0.475,
"CCOC(=O)/C=C/CC[C@H](NC(=O)c1ccoc1)C(=O)Nc1cccn(CC(=O)NCCC(C)C)c1=O [A11, (S,E)-Ethyl 6-(furan-3-carboxamido)-7-(1-(2-(isopentylamino)-2-oxoethyl)-2-oxo-1,2-dihydropyridin-3-ylamino)-7-oxohept-2-enoate]",0.104,
"CCOC(=O)/C=C/CC[C@H](NC(C)=O)C(=O)Nc1cccn(CC(=O)NCCN(C)C)c1=O [A27, (S,E)-Ethyl 6-acetamido-7-(1-(2-(2-(dimethylamino)ethylamino)-2-oxoethyl)-2-oxo-1,2-dihydropyridin-3-ylamino)-7-oxohept-2-enoate]",5.2,
"CCOC(=O)/C=C/CC[C@H](NC(=O)OCc1ccccc1)C(=O)Nc1cccn(CC(=O)NCCC(C)C)c1=O [A3, (S,E)-Ethyl 6-(benzyloxycarbonylamino)-7-(1-(2-(isopentylamino)-2-oxoethyl)-2-oxo-1,2-dihydropyridin-3-ylamino)-7-oxohept-2-enoate]",0.096,
"CCOC(=O)/C=C/CC[C@H](NC(C)=O)C(=O)Nc1ccc(C)n(CC(=O)NCCC(C)C)c1=O [A4, (S,E)-Ethyl 6-acetamido-7-(1-(2-(isopentylamino)-2-oxoethyl)-6-methyl-2-oxo-1,2-dihydropyridin-3-ylamino)-7-oxohept-2-enoate]",0.119,
"CCOC(=O)/C=C/CC[C@H](NS(=O)(=O)c1ccccc1)C(=O)Nc1cccn(CC(=O)NCCC(C)C)c1=O [A22, (S,E)-Ethyl 7-(1-(2-(isopentylamino)-2-oxoethyl)-2-oxo-1,2-dihydropyridin-3-ylamino)-7-oxo-6-(phenylsulfonamido)hept-2-enoate]",0.133,
"CC[C@@]1(O)C(=O)OCc2c1cc1n(c2=O)Cc2cc3ccccc3nc2-1 [camptothecin, reference compound]",,effect on metabolic activity (EZ4U) [1]: significant reduction; effect on proliferation (BrdU) [2]: significant reduction; effect on proliferation (BrdU) [3]: significant reduction; effect on metabolic activity (EZ4U) [4]: significant reduction
"CCOC(=O)/C=C/CC[C@H](NS(=O)(=O)Cc1ccc(Cl)cc1)C(=O)Nc1cccn(CC(=O)NCCC(C)C)c1=O [A9, (S,E)-ethyl 6-((4-chlorophenyl)methylsulfonamido)-7-(1-(2-(isopentylamino)-2-oxoethyl)-2-oxo-1,2-dihydropyridin-3-ylamino)-7-oxohept-2-enoate]",0.708,
